Results on twelve molecules are retold here after US8148373B2, “Compounds” (AstraZeneca AB, priority 2008, dated 2012).

Where only a bound is given, the exact number is not on record here.

Experiment [1] has as its target T1, Adrenergic β2 (H292 cells) (Homo sapiens, UniProt P07550).
T1 construct: endogenous in cells; host or cells: H292 cells
Kind of experiment: Adrenergic β2 Mediated cAMP Production, single concentration 1 μM. It counts as cell-based. To be noted: NCI-H292, 1 μM compound, percentage of the maximum response generated by 1E-07M formoterol, read-out: β2 (% effect at 1 μM). The method, then: The following experimental procedure was used to measure the beta-2% effect at 1 μM for the compounds of Examples 116-263. Adrenergic β2 Mediated cAMP Production Cell Preparation
H292 cells are grown in 225 cm2 flasks incubator at 37° C., 5% CO2 in RPMI medium containing 10% (v/v) FBS (foetal bovine serum) and 2 mM L-glutamine.
Compounds were prepared by an initial first dilution into DMSO to give 1 mM stock concentration. This was followed by a 1 in 10 dilution of the stock concentration (10 μl stock compound+90 μl DMSO) to give 0.1 mM compound.
A compound addition plate was prepared by making a further 1 in 25 dilution in assay buffer (HBSS solution containing 10 mM HEPES pH7.4 and 5 mM glucose) containing 4% dimethylsulfoxide. The final compound concentration in assay is 1 μM.
Adherent H292 cells are removed from tissue culture flasks by treatment with Accutase™ cell detachment solution for 15 minutes. Flasks are incubated for 15 minutes in a humidified incubator at 37° C., 5% CO2. Detached cells are re-suspended in RPMI media (containing 10% (v/v) FBS and 2 mM L-glutamine) at 0.1×10^6 cells per mL. 10000 cells in 100 μL are added to each well of a tissue-culture-treated 96-well plate and the cells incubated overnight in a humidified incubator at 37° C., 5% CO2. The culture media is removed and cells are washed twice with 100 μL assay buffer and replaced with 50 μL assay buffer (HBSS solution containing 10 mM HEPES pH7.4 and 5 mM glucose). Cells are rested at room temperature for 20 minutes after which time 25 μL of rolipram (1.2 mM made up in assay buffer) is added. Cells are incubated with rolipram for 10 minutes after which time 25 μl test compounds are added and the cells are incubated for 60 minutes at room temperature. The final rolipram concentration in the assay is 300 μM and final vehicle concentration is 1% (v/v) dimethylsulphoxide. The reaction is stopped by removing supernatants, washing once with 100 μL assay buffer and replacing with 50 μL lysis buffer. The cell monolayer is frozen at −80° C. for 30 minutes (or overnight).
AlphaScreen™ cAMP Detection
The concentration of cAMP (cyclic adenosine monophosphate) in the cell lysate is determined using AlphaScreen™ methodology. The frozen cell plate is thawed for 20 minutes on a plate shaker then 10 μL of the cell lysate is transferred to a 96-well white plate. 40 μL of mixed AlphaScreen™ detection beads (containing equal volumes of donor beads (pre-incubated with biotinylated cAMP in the dark for 30 minutes) and acceptor beads is added to each well and the plate incubated at room temperature for 3 hours in the dark. The AlphaScreen™ signal is measured using an EnVision spectrophotometer (Perkin-Elmer Inc.) with the recommended manufacturer's settings. Concentration of cAMP produced per well were calculated with reference to the cAMP standard curve determined in the same experiment and expressed as a percentage of the maximum response generated by 1E-07M formoterol.

Experiment [2] has as its target T2, human muscarinic acetylcholine M3 receptor (M3-ACh) (Homo sapiens, UniProt P20309).
T2 construct: expressed in transfected cells; host or cells: CHO-K1 (Chinese Hamster Ovary) cell membranes
The experiment is described as follows: Muscarinic 3 Receptor Binding Assay, % inhibition specific binding at 1 μM. To be noted: 1 μM compound, % inhibition specific [3H]-NMS binding. As to the method:
The following experimental procedure was used to determine the M3% inhibition at 1 μM of the compounds of Examples 116-263.
Muscarinic 3 Receptor Binding Assay
The activity (% inhibition specific binding) of compounds -on the M3 receptor is determined by competition binding of [^3H]N-methyl scopolamine (NMS) to CHO-K1 (Chinese Hamster Ovary) cell membranes expressing the human muscarinic acetylcholine M3 receptor (M3-ACh) in a scintillation proximity assay (SPA) format.
SPA beads are precoated with membranes and then incubated at 2 mg of beads per well with 1 μM compound of the invention, [^3H]NMS at 0.1 nM, quarter Kd (experimentally determined dissociation constant) and assay buffer (20 mM HEPES pH 7.4 containing 5 mM MgCl2). The assay is conducted in a final volume of 200 μL, in the presence of 1% (v/v) dimethyl sulphoxide (DMSO). Total binding of [^3H]NMS is determined in the absence of competing compound and non-specific binding of [^3H]NMS is determined in the presence of 1 μM atropine. The plates are incubated for 16 hours at room temperature and then read on Wallac Microbeta™ using a normalised ^3H protocol. The compound activity at 1 defined as % inhibition specific [^3H]-NMS binding, is determined.

Experiment [3] concerns the target T1, Adrenergic β2 (H292 cells). The experiment is described as follows: Assay for Adrenergic β2 Mediated cAMP Production (concentration response, AlphaScreen cAMP detection). The conditions noted are these: for EC50: cAMP production, 60 minutes at room temperature, 300 μM rolipram, read-out: β2 pEC50 (converted); for β2 Intrinsic activity: fraction relative to the maximum activity determined for formoterol. The class given is cell-based. An outline of the steps:
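Intrinsic activity is relative to the per-experiment formoterol maximum, with pEC50 from a four-parameter logistic fit of cAMP levels quantified by AlphaScreen against standards. Cells (H292) got 300 μM rolipram for 10 min, then compound for 60 min at room temperature, 1% DMSO final.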

In experiment [4] the target is T2, human muscarinic acetylcholine M3 receptor (M3-ACh). Kind of experiment: Muscarinic 3 Receptor Binding Assay ([3H]NMS competition, SPA). The conditions noted are these: [3H]NMS 0.1 nM, CHO-K1 cell membranes, 16 hours at room temperature; read-out: M3 pIC50 (converted). The method, boiled down:
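Competition SPA binding of 0.1 nM [3H]NMS (quarter Kd) to membranes from CHO-K1 cells expressing human M3, in 20 mM HEPES pH 7.4, 5 mM MgCl2, 1% DMSO. Incubated 16 h at room temperature; non-specific binding with 1 µM atropine. pIC50 from 50% reduction of specific binding.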

T2 sequence (P20309 whole entry): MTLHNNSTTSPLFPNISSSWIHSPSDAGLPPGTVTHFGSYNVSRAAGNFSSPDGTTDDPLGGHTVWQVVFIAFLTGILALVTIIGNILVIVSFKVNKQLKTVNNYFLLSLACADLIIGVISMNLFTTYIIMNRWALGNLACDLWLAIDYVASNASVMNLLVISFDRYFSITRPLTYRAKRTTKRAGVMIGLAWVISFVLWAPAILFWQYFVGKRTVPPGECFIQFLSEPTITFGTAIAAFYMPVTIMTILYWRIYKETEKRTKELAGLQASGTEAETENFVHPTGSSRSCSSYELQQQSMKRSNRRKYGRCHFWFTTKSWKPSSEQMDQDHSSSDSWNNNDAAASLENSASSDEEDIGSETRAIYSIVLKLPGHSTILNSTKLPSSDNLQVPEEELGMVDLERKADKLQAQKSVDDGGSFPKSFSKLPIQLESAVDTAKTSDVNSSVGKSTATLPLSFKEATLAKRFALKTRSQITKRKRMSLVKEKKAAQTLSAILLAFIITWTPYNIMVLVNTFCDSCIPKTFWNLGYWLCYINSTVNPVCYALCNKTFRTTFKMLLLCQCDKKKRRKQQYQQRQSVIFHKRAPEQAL
T1 sequence (P07550 whole entry): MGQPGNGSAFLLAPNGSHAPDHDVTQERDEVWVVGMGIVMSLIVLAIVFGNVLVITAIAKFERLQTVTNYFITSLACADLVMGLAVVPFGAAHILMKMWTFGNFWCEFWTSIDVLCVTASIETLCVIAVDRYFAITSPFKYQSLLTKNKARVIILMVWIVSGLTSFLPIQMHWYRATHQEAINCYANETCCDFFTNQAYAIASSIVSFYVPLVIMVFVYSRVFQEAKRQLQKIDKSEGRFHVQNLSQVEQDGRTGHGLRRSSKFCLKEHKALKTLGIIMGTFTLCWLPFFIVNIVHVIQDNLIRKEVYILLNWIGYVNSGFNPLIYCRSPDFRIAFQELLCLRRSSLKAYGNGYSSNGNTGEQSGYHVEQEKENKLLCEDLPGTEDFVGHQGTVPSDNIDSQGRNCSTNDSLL

With `O=C(c1csc(C2CCC2)n1)N1CCOC2(CCN(CCOc3ccc(CNC[C@H](O)c4ccc(O)c5[nH]c(=O)sc45)cc3)CC2)C1` [Example 261, (R)-7-(2-(4-(2-(4-(2-cyclobutylthiazole-4-carbonyl)-1-oxa-4,9-diazaspiro[5.5]undecan-9-yl)ethoxy)benzylamino)-1-hydroxyethyl)-4-hydroxy-benzo[d]thiazol-2(3H)-one], in experiment [1], the activation at 1 µM is 70%. This molecule registered an inhibition at 1 µM in experiment [2] of 90%.
For the molecule `Cc1ccn(CC(=O)N2CCOC3(CCN(CCOc4ccc(CNC[C@H](O)c5ccc(O)c6[nH]c(=O)sc56)cc4)CC3)C2)n1` [Example 245, (R)-4-hydroxy-7-(1-hydroxy-2-(4-(2-(4-(2-(3-methyl-1H-pyrazol-1-yl)acetyl)-1-oxa-4,9-diazaspiro[5.5]undecan-9-yl)ethoxy)benzylamino)ethyl) benzo[d]thiazol-2(3H)-one], the activation at 1 µM in experiment [1] was determined as 76%. In experiment [2], this molecule registered an inhibition at 1 µM of 51%.
As to `O=C(CCOc1ccccc1)N1CCOC2(CCN(CCOc3ccc(CNC[C@H](O)c4ccc(O)c5[nH]c(=O)sc45)cc3)CC2)C1` [Example 247, (R)-4-hydroxy-7-(1-hydroxy-2-(4-(2-(4-(3-phenoxypropanoyl)-1-oxa-4,9-diazaspiro[5.5]undecan-9-yl)ethoxy)benzylamino)ethyl) benzo[d]thiazol-2(3H)-one], in experiment [1], the activation at 1 µM turned out to be 75%. Also, testing at 1 µM in experiment [2] gave an inhibition of 60%.
On to `O=C(c1ccsc1Cl)N1CCOC2(CCN(CCCCCCCCCNC[C@H](O)c3ccc(O)c4[nH]c(=O)sc34)CC2)C1` [Example 212, (R)-7-(2-(9-(4-(2-chlorothiophene-3-carbonyl)-1-oxa-4,9-diazaspiro[5.5]undecan-9-yl)nonylamino)-1-hydroxyethyl)-4-hydroxybenzo[d]thiazol-2(3H)-one], for which the activation at 1 µM in experiment [1] was determined as 93%. This molecule had an inhibition at 1 µM in experiment [2] of 88%.
The matching figures for `Cc1ccc2nc(C)c(C(=O)N3CCOC4(CCN(Cc5cc(F)cc(CCNC[C@H](O)c6ccc(O)c7[nH]c(=O)sc67)c5)CC4)C3)n2c1` [Example 143, (R)-7-(2-(3-((4-(2,6-dimethylimidazo[1,2-a]pyridine-3-carbonyl)-1-oxa-4,9-diazaspiro[5.5]undecan-9-yl)methyl)-5-fluorophenethylamino)-1-hydroxyethyl)-4-hydroxybenzo[d]thiazol-2(3H)-one]: 108% and 2%.
As for `O=C(Cn1c(C(F)(F)F)nc2ccccc21)N1CCOC2(CCN(Cc3cc(F)cc(CCNC[C@H](O)c4ccc(O)c5[nH]c(=O)sc45)c3)CC2)C1` [Example 177, (R)-7-(2-(3-fluoro-5-((4-(2-(2-(trifluoromethyl)-1H-benzo[d]imidazol-1-yl)acetyl)-1-oxa-4,9-diazaspiro[5.5]undecan-9-yl)methyl)phenethylamino)-1-hydroxyethyl)-4-hydroxybenzo[d]thiazol-2(3H)-one], the activation at 1 µM in experiment [1] stood at 78%. The molecule further had an inhibition at 1 µM in experiment [2] of 1%.
With `Cc1cc(C(=O)N2CCOC3(CCN(CCOc4ccc(CNC[C@H](O)c5ccc(O)c6[nH]c(=O)sc56)cc4)CC3)C2)oc1C` [Example 236, (R)-7-(2-(4-(2-(4-(4,5-dimethylfuran-2-carbonyl)-1-oxa-4,9-diazaspiro[5.5]undecan-9-yl)ethoxy)benzylamino)-1-hydroxyethyl)-4-hydroxy-benzo[d]thiazol-2(3H)-one], in experiment [1], the activation at 1 µM came to 73%. In experiment [2], this molecule gave an inhibition at 1 µM of 30%.
In the case of `CC(C)c1cccc(C(=O)N2CCOC3(CCN(Cc4cccc(CCNC[C@H](O)c5ccc(O)c6[nH]c(=O)sc56)c4F)CC3)C2)n1` [Example 85, (R)-7-(2-(2-Fluoro-3-((4-(6-isopropylpicolinoyl)-1-oxa-4,9-diazaspiro[5.5]undecan-9-yl)methyl)phenethylamino)-1-hydroxyethyl)-4-hydroxybenzo[d]thiazol-2(3H)-one ditrifluoroacetate], in experiment [3], the EC50 is 7.94 nM and the “β2 Intrinsic activity” value is listed as 0.8. Moreover, the IC50 in experiment [4] was 50.1 nM.
Regarding `CCc1cc(C(=O)N2CCOC3(CCN(Cc4cc(CCNC[C@H](O)c5ccc(O)c6[nH]c(=O)sc56)ccc4F)CC3)C2)cs1` [Example 100, (R)-7-(2-(3-((4-(5-Ethylthiophene-3-carbonyl)-1-oxa-4,9-diazaspiro[5.5]undecan-9-yl)methyl)-4-fluorophenethylamino)-1-hydroxyethyl)-4-hydroxybenzo[d]thiazol-2(3H)-one ditrifluoroacetate], in experiment [3], the EC50 was 5.01 nM and the “β2 Intrinsic activity” value is reported as 0.9. Also, in experiment [4], the IC50 was 1.58 nM.
In the case of `Cc1ccc(S(=O)(=O)N2CCOC3(CCN(Cc4cc(F)cc(CCNC[C@H](O)c5ccc(O)c6[nH]c(=O)sc56)c4)CC3)C2)s1` [Example 63, (R)-7-(2-(3-Fluoro-5-((4-(5-methylthiophen-2-ylsulfonyl)-1-oxa-4,9-diazaspiro[5.5]undecan-9-yl)methyl)phenethylamino)-1-hydroxyethyl)-4-hydroxybenzo[d]thiazol-2(3H)-one ditrifluoroacetate], in experiment [3], the EC50 was 5.01 nM and the “β2 Intrinsic activity” value came out at 1. For the same molecule, in experiment [4], the IC50 was more than 1000 nM.
Turning to `CC(C)c1nc(C(=O)N2CCOC3(CCN(Cc4cc(F)cc(CCNC[C@H](O)c5ccc(O)c6[nH]c(=O)sc56)c4)CC3)C2)cs1` [Example 42, (R)-7-(2-(3-Fluoro-5-((4-(2-isopropylthiazole-4-carbonyl)-1-oxa-4,9-diazaspiro[5.5]undecan-9-yl)methyl)phenethylamino)-1-hydroxyethyl)-4-hydroxybenzo[d]thiazol-2(3H)-one ditrifluoroacetate], in experiment [3], the EC50 was 7.94 nM and the “β2 Intrinsic activity” value is recorded as 1. Further, the IC50 in experiment [4] was 0.631 nM.
The matching figures for `Cc1nc(C(=O)N2CCOC3(CCN(Cc4cccc(CCNCC(O)c5ccc(O)c6c5OCC(=O)N6)c4)CC3)C2)cs1` (single isomer, unassigned; isomer 1) [Example 11, 5-Hydroxy-8-(1-hydroxy-2-(3-((4-(2-methylthiazole-4-carbonyl)-1-oxa-4,9-diazaspiro[5.5]undecan-9-yl)methyl)phenethylamino)ethyl)-2H-benzo[b][1,4]oxazin-3(4H)-one ditrifluoroacetate, Isomer 1]: 1.58 nM, 0.8 and 0.1 nM.
